Laboratory results published in ChEMBL document CHEMBL4699645 (2020).
Where a SMILES comes first, the peptide text is derived from it. Bridges are numbered along the chain shown (N, C = ends).

How the values were obtained:
[1] = target: Neuronal acetylcholine receptor; alpha3/beta2 (Rattus norvegicus, UniProt P04757+P12390); experiment: Antagonist activity at rat alpha3beta2 nAChR expressed in Xenopus laevis oocytes assessed as inhibition of Ach-induced response at -70 mV holding potential incubated for 5 mins by voltage-clamp assay; format: cell-based, Oocyte
[2] = target: Neuronal acetylcholine receptor; alpha3/beta4 (Rattus norvegicus, UniProt P04757+P12392); experiment: Antagonist activity at rat alpha3beta4 nAChR expressed in Xenopus laevis oocytes assessed as inhibition of Ach-induced response at -70 mV holding potential incubated for 5 mins by voltage-clamp assay; format: cell-based, Oocyte
[3] = Displacement of [125I]-alpha-bungarotoxin from Aplysia californica C-terminal His6-tagged N-terminal gp67 signal peptide-tagged acetylcholine receptor binding protein expressed in Hi5 insect cells preincubated for 3 hrs followed by [125I]-alpha-bungarotoxin measured after 5 mins by radioligand binding assay
[4] = system: Hi-5; experiment: Displacement of [125I]-alpha-bungarotoxin from Aplysia californica C-terminal His6-tagged N-terminal gp67 signal peptide-tagged acetylcholine receptor binding protein expressed in Hi5 insect cells preincubated for 3 hrs followed by [125I]-alpha-bungarotoxin measured after 5 mins by radioligand binding assay relative to LvIA IC50; conditions: time 185.0 min
[5] = organism: Rattus norvegicus; experiment: Selectivity index, ratio of IC50 for rat alpha3beta4 nAChR expressed in Xenopus laevis oocytes to IC50 for rat alpha3beta2 nAChR expressed in Xenopus laevis oocytes; format: cell-based
[6] = target: Neuronal acetylcholine receptor; alpha3/beta2 (Rattus norvegicus) (UniProt P04757+P12390); experiment: Antagonist activity at rat alpha3beta2 nAChR expressed in Xenopus laevis oocytes assessed as inhibition of Ach-induced response at -70 mV holding potential incubated for 5 mins by voltage-clamp assay relative to LvIA IC50; format: cell-based; conditions: Oocyte
[7] = target: Neuronal acetylcholine receptor; alpha3/beta4 (Rattus norvegicus) (UniProt P04757+P12392); experiment: Antagonist activity at rat alpha3beta4 nAChR expressed in Xenopus laevis oocytes assessed as inhibition of Ach-induced response at -70 mV holding potential incubated for 5 mins by voltage-clamp assay relative to LvIA IC50; format: cell-based; conditions: Oocyte

Neuronal acetylcholine receptor; alpha3/beta2, sequence (P04757 whole entry): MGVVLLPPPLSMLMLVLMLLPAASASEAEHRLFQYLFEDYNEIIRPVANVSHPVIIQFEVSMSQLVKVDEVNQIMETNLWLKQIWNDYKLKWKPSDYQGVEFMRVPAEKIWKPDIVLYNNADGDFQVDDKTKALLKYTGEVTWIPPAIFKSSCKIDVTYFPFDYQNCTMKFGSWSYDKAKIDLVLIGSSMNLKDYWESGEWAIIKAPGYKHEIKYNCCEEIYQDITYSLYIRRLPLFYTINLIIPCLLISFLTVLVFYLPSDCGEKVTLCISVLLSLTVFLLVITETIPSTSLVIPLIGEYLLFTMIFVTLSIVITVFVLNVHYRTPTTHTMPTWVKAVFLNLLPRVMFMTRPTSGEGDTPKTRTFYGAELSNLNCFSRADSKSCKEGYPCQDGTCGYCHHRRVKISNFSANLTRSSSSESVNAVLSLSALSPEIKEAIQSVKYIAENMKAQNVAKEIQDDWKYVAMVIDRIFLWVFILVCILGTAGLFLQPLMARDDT
Neuronal acetylcholine receptor; alpha3/beta2, sequence (P12390 whole entry): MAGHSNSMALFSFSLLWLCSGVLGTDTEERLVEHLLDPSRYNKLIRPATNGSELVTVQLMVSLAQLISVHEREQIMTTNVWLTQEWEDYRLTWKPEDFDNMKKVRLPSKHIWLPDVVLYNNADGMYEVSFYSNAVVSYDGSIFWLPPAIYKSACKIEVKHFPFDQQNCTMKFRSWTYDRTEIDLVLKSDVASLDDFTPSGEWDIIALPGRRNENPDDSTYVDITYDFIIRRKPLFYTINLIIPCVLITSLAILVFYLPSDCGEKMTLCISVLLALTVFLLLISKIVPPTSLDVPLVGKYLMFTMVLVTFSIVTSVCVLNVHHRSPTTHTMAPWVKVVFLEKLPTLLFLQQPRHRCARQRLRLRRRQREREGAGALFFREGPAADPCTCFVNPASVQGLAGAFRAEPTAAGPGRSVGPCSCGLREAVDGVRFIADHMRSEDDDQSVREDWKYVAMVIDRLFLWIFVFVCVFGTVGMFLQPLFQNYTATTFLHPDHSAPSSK
Neuronal acetylcholine receptor; alpha3/beta4, sequence (P04757 whole entry): as the sequence (P04757 whole entry) above
Neuronal acetylcholine receptor; alpha3/beta4, sequence (P12392 whole entry): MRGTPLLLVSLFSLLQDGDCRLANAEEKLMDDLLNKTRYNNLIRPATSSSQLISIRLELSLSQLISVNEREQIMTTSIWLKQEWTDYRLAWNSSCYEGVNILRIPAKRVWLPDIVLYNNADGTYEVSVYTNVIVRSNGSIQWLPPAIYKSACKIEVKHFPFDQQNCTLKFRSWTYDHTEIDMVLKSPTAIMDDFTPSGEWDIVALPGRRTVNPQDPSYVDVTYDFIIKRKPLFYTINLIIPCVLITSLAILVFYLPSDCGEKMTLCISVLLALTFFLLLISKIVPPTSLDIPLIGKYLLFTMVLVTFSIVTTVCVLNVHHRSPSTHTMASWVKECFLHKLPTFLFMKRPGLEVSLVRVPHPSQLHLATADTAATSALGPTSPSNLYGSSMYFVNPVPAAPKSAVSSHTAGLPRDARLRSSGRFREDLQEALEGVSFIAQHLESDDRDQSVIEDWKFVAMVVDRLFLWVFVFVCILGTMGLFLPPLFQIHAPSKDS

Row | Structure (SMILES) | IC50 [1] [nM] | IC50 [2] [nM] | IC50 [3] [nM] | Ratio IC50 [4] | Ratio IC50 [5] | Ratio IC50 [6] | Ratio IC50 [7]
1 | CC[C@H](C)[C@@H]1NC(=O)[C@H](CCC(=O)O)NC(=O)[C@@H]2CCCN2C(=O)[C@H](Cc2cnc[nH]2)NC(=O)[C@H](CC(=O)O)NC(=O)[C@H](C(C)C)NC(=O)[C@H](CC(N)=O)NC(=O)[C@@H]2CSSC[C@H](NC(=O)CN)C(=O)N[C@@H](CSSC[C@@H](C(N)=O)NC1=O)C(=O)N[C@@H](CO)C(=O)N[C@@H](Cc1cnc[nH]1)C(=O)N[C@@H](C)C(=O)N[C@@H](C)C(=O)N2 (H-GCCSHAACNVDHPEIC-NH2; disulfide 2-8, 3-16) | > 10000 | > 10000 | 34000 | 1.17 | – | – | –
2 | CC[C@H](C)[C@@H]1NC(=O)[C@H](CCC(=O)O)NC(=O)[C@@H]2CCCN2C(=O)[C@H](Cc2cnc[nH]2)NC(=O)[C@H](CC(=O)O)NC(=O)[C@H](C(C)C)NC(=O)[C@H](CC(C)C)NC(=O)[C@@H]2CSSC[C@H](NC(=O)CN)C(=O)N[C@@H](CSSC[C@@H](C(N)=O)NC1=O)C(=O)N[C@@H](CO)C(=O)N[C@@H](Cc1cnc[nH]1)C(=O)N1CCC[C@H]1C(=O)N[C@@H](C)C(=O)N2 (H-GCCSHPACLVDHPEIC-NH2; disulfide 2-8, 3-16) | 3.2 | 325 | – | – | 102 | – | –
3 | CC[C@H](C)[C@@H]1NC(=O)[C@H](CCC(=O)O)NC(=O)[C@@H]2CCCN2C(=O)[C@H](Cc2cnc[nH]2)NC(=O)[C@H](C)NC(=O)[C@H](C(C)C)NC(=O)[C@H](CC(N)=O)NC(=O)[C@@H]2CSSC[C@H](NC(=O)CN)C(=O)N[C@@H](CSSC[C@@H](C(N)=O)NC1=O)C(=O)N[C@@H](CO)C(=O)N[C@@H](Cc1cnc[nH]1)C(=O)N1CCC[C@H]1C(=O)N[C@@H](C)C(=O)N2 (H-GCCSHPACNVAHPEIC-NH2; disulfide 2-8, 3-16) | 12 | 67.9 | 94 | -1.39 | 5.7 | 0.8 | 0.2
4 | CC[C@H](C)[C@@H]1NC(=O)[C@H](CCC(=O)O)NC(=O)[C@@H]2CCCN2C(=O)[C@H](Cc2cnc[nH]2)NC(=O)[C@H](CC(=O)O)NC(=O)[C@H](C(C)C)NC(=O)[C@H](CC(=O)O)NC(=O)[C@@H]2CSSC[C@H](NC(=O)CN)C(=O)N[C@@H](CSSC[C@@H](C(N)=O)NC1=O)C(=O)N[C@@H](CO)C(=O)N[C@@H](Cc1cnc[nH]1)C(=O)N1CCC[C@H]1C(=O)N[C@@H](C)C(=O)N2 (H-GCCSHPACDVDHPEIC-NH2; disulfide 2-8, 3-16) | > 10000 | > 10000 | – | – | – | 0.24 | 7.1
5 | CC[C@H](C)[C@@H]1NC(=O)[C@H](CCC(=O)O)NC(=O)[C@@H]2CCCN2C(=O)[C@H](Cc2cnc[nH]2)NC(=O)[C@H](CC(=O)O)NC(=O)[C@H](C(C)C)NC(=O)CNC(=O)[C@@H]2CSSC[C@H](NC(=O)CN)C(=O)N[C@@H](CSSC[C@@H](C(N)=O)NC1=O)C(=O)N[C@@H](CO)C(=O)N[C@@H](Cc1cnc[nH]1)C(=O)N1CCC[C@H]1C(=O)N[C@@H](C)C(=O)N2 (H-GCCSHPACGVDHPEIC-NH2; disulfide 2-8, 3-16) | > 10000 | > 10000 | – | – | – | 0.48 | 19.2
6 | CC[C@H](C)[C@@H]1NC(=O)[C@H](CCC(=O)O)NC(=O)[C@@H]2CCCN2C(=O)[C@H](Cc2cnc[nH]2)NC(=O)[C@H](CC(=O)O)NC(=O)[C@H](C(C)C)NC(=O)[C@H](CC(N)=O)NC(=O)[C@@H]2CSSC[C@H](NC(=O)CN)C(=O)N[C@@H](CSSC[C@@H](C(N)=O)NC1=O)C(=O)N[C@@H](C)C(=O)N[C@@H](Cc1cnc[nH]1)C(=O)N1CCC[C@H]1C(=O)N[C@@H](C)C(=O)N2 (H-GCCAHPACNVDHPEIC-NH2; disulfide 2-8, 3-16) | 54 | 193 | 780 | -0.47 | 3.6 | 3.5 | 0.7
7 | CC[C@H](C)[C@@H]1NC(=O)[C@H](C)NC(=O)[C@@H]2CCCN2C(=O)[C@H](Cc2cnc[nH]2)NC(=O)[C@H](CC(=O)O)NC(=O)[C@H](C(C)C)NC(=O)[C@H](CC(N)=O)NC(=O)[C@@H]2CSSC[C@H](NC(=O)CN)C(=O)N[C@@H](CSSC[C@@H](C(N)=O)NC1=O)C(=O)N[C@@H](CO)C(=O)N[C@@H](Cc1cnc[nH]1)C(=O)N1CCC[C@H]1C(=O)N[C@@H](C)C(=O)N2 (H-GCCSHPACNVDHPAIC-NH2; disulfide 2-8, 3-16) | 29 | 181 | 760 | -0.48 | 6.2 | 1.9 | 0.6
8 | CC[C@H](C)[C@@H]1NC(=O)[C@H](CCC(=O)O)NC(=O)[C@@H]2CCCN2C(=O)[C@H](Cc2cnc[nH]2)NC(=O)[C@H](CC(=O)O)NC(=O)[C@H](C)NC(=O)[C@H](CC(N)=O)NC(=O)[C@@H]2CSSC[C@H](NC(=O)CN)C(=O)N[C@@H](CSSC[C@@H](C(N)=O)NC1=O)C(=O)N[C@@H](CO)C(=O)N[C@@H](Cc1cnc[nH]1)C(=O)N1CCC[C@H]1C(=O)N[C@@H](C)C(=O)N2 (H-GCCSHPACNADHPEIC-NH2; disulfide 2-8, 3-16) | 71 | 309 | 2500 | 0.036 | 4.4 | 4.5 | 1.1
9 | CC[C@H](C)[C@@H]1NC(=O)[C@H](CCC(=O)O)NC(=O)[C@@H]2CCCN2C(=O)[C@H](Cc2cnc[nH]2)NC(=O)[C@H](CC(=O)O)NC(=O)[C@H](C(C)C)NC(=O)[C@H](CC(N)=O)NC(=O)[C@@H]2CSSC[C@H](NC(=O)CN)C(=O)N[C@@H](CSSC[C@@H](C(N)=O)NC1=O)C(=O)N[C@@H](CO)C(=O)N[C@@H](C)C(=O)N1CCC[C@H]1C(=O)N[C@@H](C)C(=O)N2 (H-GCCSAPACNVDHPEIC-NH2; disulfide 2-8, 3-16) | > 10000 | > 10000 | 310000 | 2.13 | – | – | –
10 | CC[C@H](C)[C@@H]1NC(=O)[C@H](CCC(=O)O)NC(=O)[C@@H]2CCCN2C(=O)[C@H](Cc2cnc[nH]2)NC(=O)[C@H](CC(=O)O)NC(=O)[C@H](C(C)C)NC(=O)[C@H]([C@@H](C)CC)NC(=O)[C@@H]2CSSC[C@H](NC(=O)CN)C(=O)N[C@@H](CSSC[C@@H](C(N)=O)NC1=O)C(=O)N[C@@H](CO)C(=O)N[C@@H](Cc1cnc[nH]1)C(=O)N1CCC[C@H]1C(=O)N[C@@H](C)C(=O)N2 (H-GCCSHPACIVDHPEIC-NH2; disulfide 2-8, 3-16) | 7.5 | 5560 | – | – | 742 | 0.21 | 1.1
11 | CC[C@H](C)[C@@H]1NC(=O)[C@H](CCC(=O)O)NC(=O)[C@@H]2CCCN2C(=O)[C@H](Cc2cnc[nH]2)NC(=O)[C@H](CC(=O)O)NC(=O)[C@H](C(C)C)NC(=O)[C@H](CCCCN)NC(=O)[C@@H]2CSSC[C@H](NC(=O)CN)C(=O)N[C@@H](CSSC[C@@H](C(N)=O)NC1=O)C(=O)N[C@@H](CO)C(=O)N[C@@H](Cc1cnc[nH]1)C(=O)N1CCC[C@H]1C(=O)N[C@@H](C)C(=O)N2 (H-GCCSHPACKVDHPEIC-NH2; disulfide 2-8, 3-16) | 3.8 | 2070 | – | – | 544 | – | –
12 | CC[C@H](C)[C@@H]1NC(=O)[C@H](CCC(=O)O)NC(=O)[C@@H]2CCCN2C(=O)[C@H](Cc2cnc[nH]2)NC(=O)[C@H](CC(=O)O)NC(=O)[C@H](C(C)C)NC(=O)[C@H](CC(N)=O)NC(=O)[C@@H]2CSSC[C@H](NC(=O)[C@H](C)N)C(=O)N[C@@H](CSSC[C@@H](C(N)=O)NC1=O)C(=O)N[C@@H](CO)C(=O)N[C@@H](Cc1cnc[nH]1)C(=O)N1CCC[C@H]1C(=O)N[C@@H](C)C(=O)N2 (H-ACCSHPACNVDHPEIC-NH2; disulfide 2-8, 3-16) | 375 | 975 | 11800 | 0.71 | 2.6 | 24 | 3.4
13 | CC[C@H](C)[C@@H]1NC(=O)[C@H](CCC(=O)O)NC(=O)[C@H](C)NC(=O)[C@H](Cc2cnc[nH]2)NC(=O)[C@H](CC(=O)O)NC(=O)[C@H](C(C)C)NC(=O)[C@H](CC(N)=O)NC(=O)[C@@H]2CSSC[C@H](NC(=O)CN)C(=O)N[C@@H](CSSC[C@@H](C(N)=O)NC1=O)C(=O)N[C@@H](CO)C(=O)N[C@@H](Cc1cnc[nH]1)C(=O)N1CCC[C@H]1C(=O)N[C@@H](C)C(=O)N2 (H-GCCSHPACNVDHAEIC-NH2; disulfide 2-8, 3-16) | 202 | 543 | 7500 | 0.51 | 2.7 | 13 | 1.9
14 | CC[C@H](C)[C@@H]1NC(=O)[C@H](CCC(=O)O)NC(=O)[C@@H]2CCCN2C(=O)[C@H](C)NC(=O)[C@H](CC(=O)O)NC(=O)[C@H](C(C)C)NC(=O)[C@H](CC(N)=O)NC(=O)[C@@H]2CSSC[C@H](NC(=O)CN)C(=O)N[C@@H](CSSC[C@@H](C(N)=O)NC1=O)C(=O)N[C@@H](CO)C(=O)N[C@@H](Cc1cnc[nH]1)C(=O)N1CCC[C@H]1C(=O)N[C@@H](C)C(=O)N2 (H-GCCSHPACNVDAPEIC-NH2; disulfide 2-8, 3-16) | > 10000 | > 10000 | 670000 | 2.46 | – | – | –
15 | CC(C)[C@@H]1NC(=O)[C@H](CC(N)=O)NC(=O)[C@@H]2CSSC[C@H](NC(=O)CN)C(=O)N[C@@H](CSSC[C@@H](C(N)=O)NC(=O)[C@H](C)NC(=O)[C@H](CCC(=O)O)NC(=O)[C@@H]3CCCN3C(=O)[C@H](Cc3cnc[nH]3)NC(=O)[C@H](CC(=O)O)NC1=O)C(=O)N[C@@H](CO)C(=O)N[C@@H](Cc1cnc[nH]1)C(=O)N1CCC[C@H]1C(=O)N[C@@H](C)C(=O)N2 (H-GCCSHPACNVDHPEAC-NH2; disulfide 2-8, 3-16) | 1080 | 1400 | 24000 | 1.02 | 1.3 | 69 | 4.8
